Experiment [1] concerns the target T1, GnT-V (β1,6-N-acetylglucosaminyl transferase) (Homo sapiens, UniProt Q09328).
T1 construct: 73/60 kDa
T1 sequence (Q09328 31-741): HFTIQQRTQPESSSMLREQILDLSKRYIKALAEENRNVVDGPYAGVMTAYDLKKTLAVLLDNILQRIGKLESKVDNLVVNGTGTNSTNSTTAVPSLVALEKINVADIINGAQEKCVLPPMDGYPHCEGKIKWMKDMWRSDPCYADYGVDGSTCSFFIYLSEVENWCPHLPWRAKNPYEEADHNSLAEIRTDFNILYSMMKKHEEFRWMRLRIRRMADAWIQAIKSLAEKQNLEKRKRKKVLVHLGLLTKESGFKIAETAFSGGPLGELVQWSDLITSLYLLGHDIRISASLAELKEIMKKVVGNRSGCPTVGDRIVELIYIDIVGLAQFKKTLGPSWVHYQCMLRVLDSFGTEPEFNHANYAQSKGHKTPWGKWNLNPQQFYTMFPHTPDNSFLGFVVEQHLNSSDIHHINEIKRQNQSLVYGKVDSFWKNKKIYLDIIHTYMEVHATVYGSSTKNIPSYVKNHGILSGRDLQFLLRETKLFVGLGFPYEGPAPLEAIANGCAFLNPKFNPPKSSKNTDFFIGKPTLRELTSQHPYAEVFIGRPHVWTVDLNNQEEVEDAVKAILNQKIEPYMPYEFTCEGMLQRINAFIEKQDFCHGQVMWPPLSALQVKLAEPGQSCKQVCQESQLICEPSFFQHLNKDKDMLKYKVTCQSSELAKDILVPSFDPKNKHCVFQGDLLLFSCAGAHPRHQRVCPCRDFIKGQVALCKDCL
As to the kind of experiment: GnT-V enzyme activity assay with fluorescence-labeled sugar acceptors, product separated by HPLC. The format is biochemical. An excerpt: An enzyme activity can be easily assayed by labeling an acceptor with a radioisotope or with fluorescent substance, adding the enzyme and separating the reaction product by high performance liquid chromatography (HPLC). More specifically, the method reported by Tanigichi et al. (Taniguchi, N., Nishikawa, A., Fujii, S., and Gu. J., Methods Enzymol. 179, 397-408 (1989); Nishikawa, H., Gu, J., Fujii, S., and Tanigichi, N., Biochem. Biophys. Acta, 1035, 313-318 (1990)) may be followed.
Namely, the enzyme activity of GnT-V can be assayed using GnGn-2-aminopyridine (GnGn-bi-PA) as an acceptor, and UDP-GluNAc (Sigma) as a donor. Activity is shown by an amount of transferred N-acetylglucosamine/hour/mg protein. Note, an amount of protein can be measured according to a reported method (Redinbaugh, M. G., and Turley, R. B., Anal. Biochem. 153, 267-271 (1986)) using a BCA kit (Pierce Chemical Company, Rockford, Ill.) and using bovine serum albumin as a standard.
Substrate specificity was determined using the following compound as sugar acceptors according to the above-mentioned enzyme activity measuring method. [drawing 1]
GnGnF--, GnGF--, GGnF--, Gn(Gn)GnF--, Gn(Gn)Gn--, GG--, GnGn--, MM-- and GnM-- were isolated from the bovine IgG treated with anhydrous hydrazine and then labeled with a fluorescence label according to Hase et al. method (Hase, S., Ibuki, T., and Ikehara, T., J. Biochem. 95, 197-203 (1984). The purified GnT-V was diluted with PBS buffer to a final concentration of 0.1 mg protein/ml, and then reacted with each fluorescence-labeled sugar acceptor. A result is shown in Table 2.

The target in experiment [2] is T2, GnT-V expression product (Homo sapiens, UniProt Q09328).
T2 sequence (Q09328 1-741): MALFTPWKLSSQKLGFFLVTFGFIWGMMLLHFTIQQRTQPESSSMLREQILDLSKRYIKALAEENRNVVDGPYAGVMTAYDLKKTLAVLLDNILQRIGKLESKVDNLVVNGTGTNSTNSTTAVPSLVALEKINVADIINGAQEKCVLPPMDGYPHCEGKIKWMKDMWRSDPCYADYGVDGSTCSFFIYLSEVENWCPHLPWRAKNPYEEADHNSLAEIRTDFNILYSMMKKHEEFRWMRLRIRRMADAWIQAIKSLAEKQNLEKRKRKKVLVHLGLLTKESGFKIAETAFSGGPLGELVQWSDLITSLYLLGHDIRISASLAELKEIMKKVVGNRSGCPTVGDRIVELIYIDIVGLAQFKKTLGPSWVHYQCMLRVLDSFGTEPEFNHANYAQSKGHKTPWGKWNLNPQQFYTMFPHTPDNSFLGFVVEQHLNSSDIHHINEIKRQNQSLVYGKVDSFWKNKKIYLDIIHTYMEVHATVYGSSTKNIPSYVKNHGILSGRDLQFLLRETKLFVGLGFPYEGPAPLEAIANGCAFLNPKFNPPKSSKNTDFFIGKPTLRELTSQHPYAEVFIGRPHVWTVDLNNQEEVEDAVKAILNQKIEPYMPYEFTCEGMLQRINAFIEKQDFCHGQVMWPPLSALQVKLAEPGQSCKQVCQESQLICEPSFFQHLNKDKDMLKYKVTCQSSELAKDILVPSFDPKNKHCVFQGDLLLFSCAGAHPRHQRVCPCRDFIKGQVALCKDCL
Put plainly: Enzyme activity of cloned GnT-V cDNA expressed in COS-1 cells. The format is biochemical. The conditions noted are these: supernatant of disrupted COS-1 cells. The procedure: The expression vector constructed in Example 8 was used to express the GnT-V cDNA fragment in animal cells and GnT-V activity of the expressed protein was tested.
Expression vector containing GnT-V cDNA fragment was transfected to COS-1 cells, animal cells for expression, by electroporation. Namely, about 5×10^6 CO.S-1 cells previously prepared were suspended in HEPES buffer (50 mM Hepes, 137 mM NaCl, 5 mM KCl, 0.7 mM NaHPO3, 6 mM dextrose, pH 7.05), 60 μg of the above-mentioned plasmid was added thereon, and 800 μl of the suspension was subjected to electroporation in an electroporator (Bio-Rad) at 250V, […]. Next, all the suspensions of COS-1 cells electroporated with GnT-V gene was plated in a petri dish having the diameter of 6 cm, and cultured at 37° C. in 5% CO2 for 48 hours. The cultured ceils were collected with a rubber-coated police man bar, and suspended in 50 μl of PBS buffer, and the cells were disrupted with a sonicator. Next, the disruptant was centrifuged to collect a supernatant, and 15 μl of the supernatant was used to assay enzyme activity.

For the compound `CC(=O)N[C@H]1[C@H](O[C@@H]([C@H](O)[C@H](CNc2ccccn2)NC(C)=O)[C@H](O)CO)O[C@H](CO)[C@@H](O[C@@H]2O[C@H](CO[C@H]3O[C@H](CO)[C@@H](O)[C@H](O)[C@@H]3O[C@@H]3O[C@H](CO)[C@@H](O)[C@H](O)[C@H]3NC(C)=O)[C@@H](O)[C@H](O[C@H]3O[C@H](CO)[C@@H](O)[C@H](O)[C@@H]3O[C@@H]3O[C@H](CO)[C@@H](O)[C@H](O)[C@H]3NC(C)=O)[C@@H]2O)[C@@H]1O` [GnGn-bi-PA, GlcNAcβ1-2Manα1-3-(GlcNAcβ1-2Manα1-6)Manβ1-4GlcNAcβ1-4GlcNAc-2-aminopyridine], the Relative reaction rate in experiment [1] (acceptor 70 μM, purified GnT-V 0.1 mg protein/ml, GnGn-bi-PA = 100) turned out to be 100. The “reactivity relative to GnGn-bi-PA acceptor taken as 100%” value in experiment [1] (substrate specificity) was 100%. Further, the “conversion of substrate by expression product GnT-V (HPLC elution profile, FIG. 10)” value in experiment [2] is “converts a substrate GnGn-bi-PA to a product GnGnGn-tri'-PA”.

(Values after patent publication US5834284A, “N-acetylglucosaminyl transferase gene coding therefor and process for production thereof” (Suntory Limited, priority 1992, dated 1998).)
